Data from patent US6506744B1, “Benzazepinone-derivatives” (Hoffmann-La Roche Inc., priority 1999, dated 2003).

Row | Structure (SMILES) | melting point
1 | CN1C(=O)CN(CC(=O)NCCC(=O)O)C(=O)c2cc(NC(=N)N)ccc21.Cl | 126 °C
2 | CN1C(=O)CN(CC(=O)NCCC(=O)O)C(=O)c2cc(NC(=O)NCc3ccccc3)ccc21 [Example 3, 3-[2-[7-(3-benzyl-ureido)-1-methyl-2,5-dioxo-1,2,3,5-tetrahydro-benzo[e][1,4]diazepin-4-yl]-acetylamino]-propionic acid] | 116 °C (dec.)
3 | O=C(O)C[C@@H](NC(=O)CN1C[C@H](c2ccccc2)Oc2ccc(NC(=O)NCc3ccccc3)cc2C1=O)c1ccccc1 [Example 21, (R,S)-3-{2-[7-(3-benzyl-ureido)-5-oxo-2-phenyl-2,3-dihydro-5H-benzo[f][1,4]oxazepin-4-yl]-acetylamino}-3-phenyl-propionic acid] | 138 to 140 °C
